From patent US4526989A, “1,4-Bis (substituted-amino)-5,8-dihydroxy-anthraquinones and leuco bases thereof” (priority 1979, dated 1985)

What was measured:
melanotic melanoma B16 = test: Melanotic Melanoma B16 test; assay type: in vivo, C57BC/6 mice
In short: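 C57BC/6 mice (10 per group) were implanted i.p. with B16 melanoma homogenate, then dosed i.p. on days 1–9 at various doses.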

[1] = system: lymphocytic leukemia P388; test: Lymphocytic leukemia P388 test (intraperitoneal administration); assay type: in vivo, DBA/2 mice; details: days 1, 5 and 9
In short: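 DBA/2 mice, single sex, 5-6 per group, inoculated i.p. with 10^6 P388 leukemia cells. Compounds given i.p. at various doses on days 1, 5 and 9; survival followed 30 days, reporting median survival time and treated/control (T/C) survival ratio.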

[2] = system: Ridgway Osteogenic Sarcoma; test: Ridgway Osteogenic Sarcoma; assay type: in vivo, AKD2 F1 /J mice; details: for % Inhibition Tumor Growth / % Showing 50% Tumor Regression / No. Without Tumors/No. Survivors / Tumor: 7 days after therapy stopped; for Median Survival / T/C: 63 days after therapy stopped
Description: The animals used are AKD2 F1 /J mice, all of the same sex, weighing a minimim of 17 g. and all within a three-gram weight range. There are normally 8 animals per test group. The tumor is administered subcutaneously by trocar as five 2-mm. fragments per mouse. The test compounds are administered intraperitoneally every 4 days for a total of 6 inoculations beginning on day 15 (relative to tumor inoculation) at various doses. The animals are weighed and survivors are recorded on a regular basis for 90 days. The regression of tumors is recorded in all test animals.

[3] = system: lymphocytic leukemia P388; test: Lymphocytic leukemia P388 test (oral drug administration); assay type: in vivo, DBA/2 mice; details: for T/C × 100: efficacy ≥125%
Description: The animals used are DBA/2 mice all of one sex, weighing a minimum of 17 g. and all within a 3 gram weight range. There are 5 or 6 animals per test group. The tumor transplant is by intraperitoneal injection of 0.1 ml. of dilute ascitic fluid containing 10^6 cells of lymphocytic leukemia P388. The test compounds are administered intraperitoneally on days one, 5 and 9 (relative to tumor inoculation) at various doses. The animals are weighed and survivors are recorded on a regular basis for 30 days. The median survival time and the ratio of survival time for treated (T)/control (C) animals are calculated. […] The results of this test with representative compounds of the present invention appear in Table I. The criterion for efficacy is T/C×100≥125%.
The procedure used is the same as for the previously described test for lymphocytic leukemia P388 except that the test compounds are administered orally at various doses rather than intraperitoneally. The criterion for efficacy is T/C×100≥125%.

[4] = Storage behaviour of solid; assay type: physicochemical

CN(C)CCNc1ccc(NCCN(C)C)c2c1C(=O)c1c(O)ccc(O)c1C2=O [1,4-Bis[(2-dimethylaminoethyl)amino]-5,8-dihydroxyanthraquinone]
Median Survival Time (melanotic melanoma B16; 3 mg./kg. i.p., days 1 through 9): 25.5 days | Median Survival Time (melanotic melanoma B16; 6 mg./kg. i.p., days 1 through 9): 27.0 days | Median Survival Time (melanotic melanoma B16; 12 mg./kg. i.p., days 1 through 9): 28.5 days | Median Survival Time (melanotic melanoma B16; 25 mg./kg. i.p., days 1 through 9): 24.5 days | response vs control in vivo at 3 mg/kg (melanotic melanoma B16; Mus musculus, ip, read-out: T/C × 100): 142% | response vs control in vivo at 6 mg/kg (melanotic melanoma B16; Mus musculus, ip, 6 mg./kg. i.p., days 1 through 9, efficacy ≥125%, read-out: T/C × 100): 150% | response vs control in vivo at 12 mg/kg (melanotic melanoma B16; Mus musculus, ip, 12 mg./kg. i.p., days 1 through 9, efficacy ≥125%, read-out: T/C × 100): 158% | response vs control in vivo at 25 mg/kg (melanotic melanoma B16; Mus musculus, ip, 25 mg./kg. i.p., days 1 through 9, efficacy ≥125%, read-out: T/C × 100): 136% | Median Survival Time ([1]; 3 mg./kg. i.p.): 19.5 days | Median Survival Time ([1]; 6 mg./kg. i.p.): 21.0 days | Median Survival Time ([1]; 12 mg./kg. i.p.): 23.0 days | Median Survival Time ([1]; 25 mg./kg. i.p.): 20.5 days | Median Survival Time ([1]; 50 mg./kg. i.p.): 25.0 days | response vs control in vivo at 3 mg/kg ([1]; Mus musculus, P388, ip, 3 mg./kg. i.p., efficacy ≥125%, read-out: T/C × 100): 217% | response vs control in vivo at 6 mg/kg ([1]; Mus musculus, P388, ip, 6 mg./kg. i.p., efficacy ≥125%, read-out: T/C × 100): 233% | response vs control in vivo at 12 mg/kg ([1]; Mus musculus, P388, ip, 12 mg./kg. i.p., efficacy ≥125%, read-out: T/C × 100): 256% | response vs control in vivo at 25 mg/kg ([1]; Mus musculus, P388, ip, 25 mg./kg. i.p., efficacy ≥125%, read-out: T/C × 100): 228% | response vs control in vivo at 50 mg/kg ([1]; Mus musculus, P388, ip, 50 mg./kg. i.p., efficacy ≥125%, read-out: T/C × 100): 278% | % Inhibition Tumor Growth ([2]; 6 mg./kg. i.p.): 19% | % Showing 50% Tumor Regression ([2]; 6 mg./kg. i.p.): 0% | No. Without Tumors/No. Survivors ([2]; 6 mg./kg. i.p.): 0/6 | Tumor ([2]; 6 mg./kg. i.p.): 960 (mm.) 2 | Median Survival ([2]; 6 mg./kg. i.p.): 57.5 days | T/C ([2]; 6 mg./kg. i.p.): 129% | % Inhibition Tumor Growth ([2]; 12 mg./kg. i.p.): 61% | % Showing 50% Tumor Regression ([2]; 12 mg./kg. i.p.): 0% | No. Without Tumors/No. Survivors ([2]; 12 mg./kg. i.p.): 0/3 | Tumor ([2]; 12 mg./kg. i.p.): 470 (mm.) 2 | Median Survival ([2]; 12 mg./kg. i.p.): 37 days | T/C ([2]; 12 mg./kg. i.p.): 83% | % Inhibition Tumor Growth ([2]; 25 mg./kg. i.p.): 41% | % Showing 50% Tumor Regression ([2]; 25 mg./kg. i.p.): 0% | No. Without Tumors/No. Survivors ([2]; 25 mg./kg. i.p.): 0/8 | Tumor ([2]; 25 mg./kg. i.p.): 653 (mm.) 2 | Median Survival ([2]; 25 mg./kg. i.p.): 78 days | T/C ([2]; 25 mg./kg. i.p.): 175% | % Inhibition Tumor Growth ([2]; 50 mg./kg. i.p.): 78% | % Showing 50% Tumor Regression ([2]; 50 mg./kg. i.p.): 25% | No. Without Tumors/No. Survivors ([2]; 50 mg./kg. i.p.): 2/6 | Tumor ([2]; 50 mg./kg. i.p.): 263 (mm.) 2 | Median Survival ([2]; 50 mg./kg. i.p.): 92.5 days | T/C ([2]; 50 mg./kg. i.p.): 208% | % Inhibition Tumor Growth ([2]; 100 mg./kg. i.p.): 96% | % Showing 50% Tumor Regression ([2]; 100 mg./kg. i.p.): 28% | No. Without Tumors/No. Survivors ([2]; 100 mg./kg. i.p.): 2/5 | Tumor ([2]; 100 mg./kg. i.p.): 52 (mm.) 2 | Median Survival ([2]; 100 mg./kg. i.p.): 48 days | T/C ([2]; 100 mg./kg. i.p.): 108% | Median Survival Time ([3]; 3 mg./kg. oral): 15.0 days | T/C × 100 ([3]; 3 mg./kg. oral): 130% | Median Survival Time ([3]; 6 mg./kg. oral): 16.0 days | T/C × 100 ([3]; 6 mg./kg. oral): 139% | Median Survival Time ([3]; 12 mg./kg. oral): 16.0 days | T/C × 100 ([3]; 12 mg./kg. oral): 139%

O=C1C2=C(NCCNCCNCCO)CCC(NCCNCCNCCO)=C2C(=O)c2c(O)ccc(O)c21 [Example 33, Leuco-1,4-bis[2-[2-(2-hydroxyethylamino)ethylamino]ethylamino]-5,8-dihydroxyanthraquinone]
storage behaviour of solid ([4]; stored at 25° C.): coalesces into a solid cake | storage behaviour of solid ([4]; stored at -25° C.): remains granular
